Measurements reported in patent US20030158152A1, “Protease inhibitors and their pharmaceutical uses” (priority 2000, published 2003).
pIC50: −log10 of the molar value.

What follows are compounds tested on HIV-1 (isolated standard virus Z2Z6) in PM1 cells (assay: Anti-HIV evaluation in HIV-1-infected PM1 lymphocytic cell culture, cell viability read by MTT technique). Settings: 10^4 cells/well, infected with HIV-1 isolate Z2Z6 at MOI 0.002, MTT cellular viability on 6th day after infection, cut-off 50% of emission of uninfected cells.
Type: cell-based
Protocol: The pharmacological evaluation of the derivatives obtained was undertaken using test plates with a PM1 strain cell culture, lymphocytic strain established in culture, expressing the receptors CD4+ and co-receptors C5 and R4 of the HIV-1 and producers of syncytium, incubated with isolated standard virus Z2Z6 purified by passage in cell culture PM-1, having a titer of 3.96×10^2 TCID50/ml. The infection was accomplished by using plates having 96 wells, each containing 10^4 cells/well, infected with a MOI (Multiplicity Of Infection) of 0.002. The compounds being evaluated were initially diluted in dimethylsulphoxide (DMSO) to a final concentration of 10 mM and subsequently diluted in base medium RPMI 1640 to 20 μM.
Nine wells of the cells infected initially with the isolated HIV Z6 were exposed to decreasing concentrations of the compounds at 20 μM by a factor of 2 (base log 2). The culture medium employed was the RPMI 1640, added with 10% bovine foetal serum, antibiotics […]/penicilyne and L-glutamine.
The last and tenth well was kept as a control of the infection, without the presence of the drug blank. Each line of ten wells was produced in triplicate, for posterior statistical analysis. INDINAVIR was used as control, in the same dilutions as the compounds being tested. Cytotoxic analysis was carried out on a fourth set of 10 (ten) wells with cells by applying the compounds of the present invention diluted as described hereinabove. The plates were kept in an oven with 5% CO2, at a temperature of 37° C. and verified daily by optical phase microscopy for the analysis of the occurance of syncytia, which was confirmed on the 4th day after infection.
The results were analysed using a Microsoft Excel matrix, with correction of the blanks, and plotting of the emission frequency graph of the assay (in percentage, using as the 100% standard the emission from the viable cells of the wells without infection) as measurement of cellular viability. The value of 50% of emission of the standard was considered as cut-off point for the IC50 calculation. This value was attained, after plotting on the graph of the logarithmic regression curve equation, the points obtained from the IC curve prior to the formation of the plateau of the curve.
Work on `CC(O)C(C)O` (stereo not shown) [Compound 11b] yielded a pIC50 of under 4.00.

Same assay, conditions: 10^4 cells/well, infected with HIV-1 isolate Z2Z6 at MOI 0.002, MTT cellular viability on 6th day after infection, cut-off 50% of emission of uninfected cells, read-out: IC50
For “1,4-di(benzylamine)-(2S,3S)-butane-2,3-diol [Compound 2a]”, the pIC50 was under 4.00. With “1N,4N-di[1-carbetoxy-2-(1H-3-indoyl)-(1S)-ethyl]-2,3-dihydroxy-(2S,3S)-butanediamide [Compound 3g]” the pIC50 was under 4.00. Work on “1N,4N-di[1-carbetoxy-2-methyl-(1S)-propyl]-2,3-dihydroxy-(2S,3S)-butanediamide [Compound 3b]” yielded a pIC50 of under 4.00. “1N,4N-di[1-carbetoxy-2-phenyl-(1S)-ethyl]-2,3-dihydroxy-(2S,3S)-butanediamide [Compound 3e]” gave a pIC50 of under 4.00. In the case of “1N,4N-di[1-carbetoxy-3-methyl-(1S)-butyl]-2,3-dihydroxy-(2S,3S)-butanediamide [Compound 3c]”, the pIC50 was 5.00. “1N,4N-di[2-(4-hydroxyphenyl)-1-carbetoxy-1-(1S)-ethyl]-2,3-dihydroxy-(2S,3S)-butanediamide [Compound 3f]” showed a pIC50 of 4.30. “1N,4N-di[-carbetoxy-2-phenyl-(1S)-ethyl]-2,3-diacetoxy-(2S,3S)-butanediamide [Compound 10e]” showed a pIC50 of 4.30. In the case of `O=C(NCc1ccccc1)[C@@H](O)[C@H](O)C(=O)NCc1ccccc1` [Compound 1a, 1N,4N-dibenzyl-2,3-dihydroxy-(2S,3S)-butanediamide], the pIC50 was under 4.00. For `CCOC(=O)[C@H](C)NC(=O)[C@@H](O)[C@H](O)C(=O)N[C@@H](C)C(=O)OCC` [Compound 3a, 1N,4N-di[1-carbetoxy-(1S)-ethyl]-2,3-dihydroxy-(2S,3S)-butanediamide], the pIC50 was under 4.00. In the case of `CCOC(=O)[C@@H](NC(=O)[C@@H](O)[C@H](O)C(=O)N[C@H](C(=O)OCC)[C@@H](C)CC)[C@@H](C)CC` [Compound 3d, 1N,4N-di[1-carbetoxy-2-methyl-(1S,2S)-butyl]-2,3-dihydroxy-(2S,35)-butanediamide], the pIC50 was under 4.00. With `CC(=O)O[C@H](C(=O)NCc1ccccc1)[C@H](OC(C)=O)C(=O)NCc1ccccc1` [Compound 8a, 1N,4N-dibenzyl-2,3-diacetoxy-(2S,3S)-butanediamide] the pIC50 was under 4.00. For `NNC(=O)[C@H](Cc1ccccc1)NC(=O)[C@@H](O)[C@H](O)C(=O)N[C@@H](Cc1ccccc1)C(=O)NN` [Compound 14e, 1N,4N-di[1-carbonylhydrazine-2-phenyl-(1S)-ethyl]-2,3-dihydroxy-(2S,3S)-butanediamide], the pIC50 was under 4.00. With `O=C(NCc1ccccc1)[C@H](Cc1ccccc1)NC(=O)[C@@H](O)[C@H](O)C(=O)N[C@@H](Cc1ccccc1)C(=O)NCc1ccccc1` [Compound 15, 1N,4N-di[1-carbonylbenzylamine-2-phenyl-(1S)-ethyl]-2,3-dihydroxy-(2S,3S)-butanediamide] the pIC50 was under 4.00. Compound `CCOC(=O)[C@H](Cc1ccccc1)NC(=O)[C@H](OC(C)=O)[C@@H](OC(C)=O)C(=O)N[C@@H](Cc1ccccc1)C(=O)OCC` [Compound 18, 1N,4N-di[1-carbetoxy-2-phenyl-(1S)-ethyl]-2,3-diacetoxy-(2R,3R)-butanediamide] has a pIC50 of under 4.00. `CCOC(=O)[C@H](Cc1ccccc1)NC(=O)[C@H](O)[C@@H](O)C(=O)N[C@@H](Cc1ccccc1)C(=O)OCC` [Compound 19, 1N,4N-di[1-carbetoxy-2-phenyl-(1S)-ethyl]-2,3-dihydroxy-(2R,3R)-butanediamide] was tested, and the pIC50 was under 4.00. For `CC(=O)O[C@@H](C(=O)NCc1ccccc1)[C@@H](OC(C)=O)C(=O)NCc1ccccc1` [Compound 20, 1N,4N-dibenzyl-2,3-diacetoxy-(2R,3R)-butanediamide], the pIC50 was under 4.00. For `O=C(NCc1ccccc1)[C@H](O)[C@@H](O)C(=O)NCc1ccccc1` [Compound 21, 1N,4N-dibenzyl-2,3-dihydroxy-(2R,3R)-butanediamide], the pIC50 was under 4.00. For `O[C@H](CNCc1ccccc1)[C@H](O)CNCc1ccccc1` [Compound 22, 1,4-di(benzylamine)-(2R,3R)-butane-2,3-diol], the pIC50 was under 4.00.
